## CC1(C)C=NN(/C(N)=N/S(=O)(=O)c2ccc(Cl)s2)C1 [compound 33, 5-Chloro-thiophene-2-sulfonic acid amino-(4,4-dimethyl-4,5-dihydro-pyrazol-1-yl)-methylene-amide]
  melting point: 164 to 165 °C

## O=C(Nc1ccccc1Br)C(F)(F)F [compound 12, N-(2-Bromo-phenyl)-2,2,2-trifluoro-acetamide]
  melting point: 58 to 59 °C

## CCN/C(=N\S(=O)(=O)c1ccccc1Cl)N1CCC(CC)=N1
  melting point: 87 to 88 °C

## NS(=O)(=O)c1ccc(Cl)s1 [compound 30, 5-Chloro-thiophene-2-sulfonic acid amide]
  melting point: 109 to 110 °C

## NS(=O)(=O)c1ccc(NC(=O)C(F)(F)F)c(Br)c1 [compound 14, N-(2-Bromo-4-sulfamoyl-phenyl)-2,2,2-trifluoro-acetamide]
  melting point: 171 to 172 °C

## CCNC(=S)N1CC2(C=N1)CCCC2 [compound 1, 2,3-Diazaspiro[4.4]non-3-ene-2-carbothioic acid ethylamide]
  melting point: 120 to 121 °C

## CCN/C(=N\S(=O)(=O)c1ccc(N)cc1)N1CC2(C=N1)CCCC2 [compound 4, 4-Amino-N-[(2,3-diaza-spiro[4.4]non-3-en-2-yl)-ethylamino-methylene]-benzenesulfonamide]
  melting point: 141 to 142 °C

## CCNC(=S)N1CC(C)(C)C=N1 [compound 5, 4,4-Dimethyl-4,5-dihydro-pyrazole-1-carbothioic acid ethylamide]
  melting point: 66 to 67 °C

## CCN/C(=N\S(=O)(=O)/C=C/c1ccccc1)N1CC(CC)C=N1 (stereo not drawn) [compound 29, Trans-2-phenyl-ethenesulfonic acid ethylamino-(4-ethyl-4,5-dihydro-pyrazol-1-yl)-methylene-amide]
  melting point: 91 to 92 °C

## O=C(Nc1ccc(S(=O)(=O)Cl)cc1Br)C(F)(F)F [compound 13, 3-Bromo-4-(2,2,2-trifluoro-acetylamino)-benzenesulfonyl chloride]
  melting point: 60 to 61 °C

## CC1(C)C=NN(C(N)=S)C1 [compound 31, 4,4-Dimethyl-4,5-dihydro-pyrazole-1-carbothioic acid amide]
  melting point: 149 to 150 °C

## NS(=O)(=O)c1c(Cl)nc2sccn12 [compound 21, 6-Chloro-imidazo[2,1-b]thiazole-5-sulfonic acid amide]
  melting point: 184 to 185 °C

Reference: patent US9422244B2, “Synthesis of substituted pyrazoline carboxamidine derivatives” (Abbvie Bahamas Ltd., priority 2010, dated 2016)
